According to PubChem BioAssay (NCI):
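Protocol summary: plate cells (96-well), add compound at 5 concentrations, incubate 48 h, interpolate endpoints linearly. At the TGI there is no net growth.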

How the values were obtained:
Test in all cases: NCI tumour cell line growth inhibition, 48 h
OVCAR-5 ovarian = tested on: OVCAR-5 ovarian
RXF 393 renal = tested on: RXF 393 renal
HOP-18 NSCLC = tested on: HOP-18 NSCLC
CAKI-1 renal = tested on: CAKI-1 renal
MALME-3M melanoma = tested on: MALME-3M melanoma
LOX IMVI melanoma = tested on: LOX IMVI melanoma
HOP-92 NSCLC = tested on: HOP-92 NSCLC
SK-MEL-5 melanoma = tested on: SK-MEL-5 melanoma
KM12 colon = tested on: KM12 colon
A498 renal = tested on: A498 renal
NCI/ADR-RES ovarian = tested on: NCI/ADR-RES ovarian
HL-60(TB) leukemia = tested on: HL-60(TB) leukemia
NCI-H226 lung = tested on: NCI-H226 lung
DMS 114 small cell lung = tested on: DMS 114 small cell lung
HCT-15 colon = tested on: HCT-15 colon
DLD-1 colon = tested on: DLD-1 colon
IGROV1 ovarian = tested on: IGROV1 ovarian
SF-268 CNS = tested on: SF-268 CNS
UACC-62 melanoma = tested on: UACC-62 melanoma
HT29 colon = tested on: HT29 colon
A549 NSCLC = tested on: A549 NSCLC
SK-MEL-28 melanoma = tested on: SK-MEL-28 melanoma
HCT-116 colon = tested on: HCT-116 colon
MCF7 breast = tested on: MCF7 breast
OVCAR-8 ovarian = tested on: OVCAR-8 ovarian
K-562 leukemia = tested on: K-562 leukemia
NCI-H23 lung = tested on: NCI-H23 lung
SN12K1 renal = tested on: SN12K1 renal
P388 leukemia = tested on: P388 leukemia
COLO 205 colon = tested on: COLO 205 colon
MOLT-4 leukemia = tested on: MOLT-4 leukemia
CCRF-CEM leukemia = tested on: CCRF-CEM leukemia
SNB-75 CNS = tested on: SNB-75 CNS
SNB-19 CNS = tested on: SNB-19 CNS
NCI-H522 lung = tested on: NCI-H522 lung
HOP-62 NSCLC = tested on: HOP-62 NSCLC
SF-295 CNS = tested on: SF-295 CNS
UACC-257 melanoma = tested on: UACC-257 melanoma
UO-31 renal = tested on: UO-31 renal
SK-MEL-2 melanoma = tested on: SK-MEL-2 melanoma
SN12C renal = tested on: SN12C renal
OVCAR-3 ovarian = tested on: OVCAR-3 ovarian
U251 CNS = tested on: U251 CNS
XF 498 CNS = tested on: XF 498 CNS
HCC-2998 colon = tested on: HCC-2998 colon
OVCAR-4 ovarian = tested on: OVCAR-4 ovarian
DMS 273 small cell lung = tested on: DMS 273 small cell lung
KM20L2 colon = tested on: KM20L2 colon
NCI-H460 lung = tested on: NCI-H460 lung
SW-620 colon = tested on: SW-620 colon
SNB-78 CNS = tested on: SNB-78 CNS
RPMI-8226 leukemia = tested on: RPMI-8226 leukemia
P388/ADR leukemia = tested on: P388/ADR leukemia
SK-OV-3 ovarian = tested on: SK-OV-3 ovarian
SF-539 CNS = tested on: SF-539 CNS
M19-MEL melanoma = tested on: M19-MEL melanoma
EKVX NSCLC = tested on: EKVX NSCLC

Q: Which results are given for `COc1cc2c(oc(=O)c3cc(C)cc(OC)c32)c2c(C3OC(C)C(O)C(C)(O)C3O)ccc(O)c12` (configuration not stated)?
A: TGI (OVCAR-5 ovarian): 2890 nM; TGI (RXF 393 renal): 1180 nM; TGI (HOP-18 NSCLC): 5300 nM; TGI (CAKI-1 renal): 2060 nM; TGI (MALME-3M melanoma): 1450 nM; TGI (LOX IMVI melanoma): 1710 nM; TGI (HOP-92 NSCLC): 4320 nM; TGI (SK-MEL-5 melanoma): 1790 nM; TGI (KM12 colon): 5410 nM; TGI (A498 renal): 1290 nM; TGI (NCI/ADR-RES ovarian): 2510 nM; TGI (HL-60(TB) leukemia): 251 nM; TGI (NCI-H226 lung): 1210 nM; TGI (DMS 114 small cell lung): 1170 nM; TGI (HCT-15 colon): 3650 nM; TGI (DLD-1 colon): 4560 nM; TGI (IGROV1 ovarian): 5590 nM; TGI (SF-268 CNS): 2100 nM; TGI (UACC-62 melanoma): 1130 nM; TGI (HT29 colon): 4810 nM; TGI (A549 NSCLC): 7400 nM; TGI (SK-MEL-28 melanoma): 1850 nM; TGI (HCT-116 colon): 6120 nM; TGI (MCF7 breast): 3990 nM; TGI (OVCAR-8 ovarian): 1990 nM; TGI (K-562 leukemia): 3730 nM; TGI (NCI-H23 lung): 2160 nM; TGI (SN12K1 renal): 1510 nM; TGI (P388 leukemia): 2030 nM; TGI (COLO 205 colon): 1410 nM; TGI (MOLT-4 leukemia): 875 nM; TGI (CCRF-CEM leukemia): 2410 nM; TGI (SNB-75 CNS): 1460 nM; TGI (SNB-19 CNS): 4630 nM; TGI (NCI-H522 lung): 1730 nM; TGI (HOP-62 NSCLC): 1080 nM; TGI (SF-295 CNS): 1290 nM; TGI (UACC-257 melanoma): 1620 nM; TGI (UO-31 renal): 3190 nM; TGI (SK-MEL-2 melanoma): 1560 nM; TGI (SN12C renal): 2390 nM; TGI (OVCAR-3 ovarian): 2510 nM; TGI (U251 CNS): 2420 nM; TGI (XF 498 CNS): 1150 nM; TGI (HCC-2998 colon): 1760 nM; TGI (OVCAR-4 ovarian): 2140 nM; TGI (DMS 273 small cell lung): 1270 nM; TGI (KM20L2 colon): 5040 nM; TGI (NCI-H460 lung): 763 nM; TGI (SW-620 colon): 7740 nM; TGI (SNB-78 CNS): 5320 nM; TGI (RPMI-8226 leukemia): 1920 nM; TGI (P388/ADR leukemia): 3410 nM; TGI (SK-OV-3 ovarian): 4450 nM; TGI (SF-539 CNS): 1730 nM; TGI (M19-MEL melanoma): 1640 nM; TGI (EKVX NSCLC): 2310 nM
